Data as given in ChEMBL document CHEMBL1158459, “Discovery of a peroxisome proliferator activated receptor gamma (PPARgamma) modulator with balanced PPARalpha activity for the treatment of type 2 diabetes and dyslipidemia” (J Med Chem, 2009).
Activity calls are given as the source filed them. The rule behind the calls is not given here.

Test system: not listed separately
Experiment: Cmax in C57BLKS/J-m+/+Leprdb db/db mouse at 10 mg/kg, po once daily for 11 days
Assay type: ADME, organism-based
Design: dose 10 mg/kg, route oral
Conditions: in vivo

Row | Cmax | Structure (SMILES)
1 | 68 µM | CN(CCOc1ccc(CC2SC(=O)NC2=O)cc1)c1ccccn1 (configuration not stated) [ROSIGLITAZONE]

Test system: not listed separately
Experiment: AUC in C57BLKS/J-m+/+Leprdb db/db mouse at 10 mg/kg, po once daily for 11 days
Assay type: ADME, organism-based
Design: dose 10 mg/kg, route oral
Conditions: plasma

Row | AUC at 264 h | Structure (SMILES)
2 | 180 µM·h | CCc1ccc(CCOc2ccc(CC3SC(=O)NC3=O)cc2)nc1 (configuration not stated) [PIOGLITAZONE]

Test system: Mus musculus
Experiment: Antidiabetic activity in high fat diet-fed streptozotocin-treated mouse assessed as reduction in plasma glucose levels at 5 mg/kg, po once daily for 12 days relative to control
Assay type: functional
Design: scale not given: the % may be the effect or the level left
Conditions: not given

Row | Structure (SMILES) | Activity
3 | CN(CCOc1ccc(CC2SC(=O)NC2=O)cc1)c1ccccn1 (configuration not stated) [ROSIGLITAZONE] | 36%

Test system: Mus musculus
Experiment: Antidiabetic activity in high fat diet-fed streptozotocin-treated mouse assessed as reduction in plasma glucose levels at 30 mg/kg, po once daily for 12 days relative to control
Assay type: functional
Design: scale not given: the % may be the effect or the level left
Conditions: not given

Row | Structure (SMILES) | Activity
4 | CN(CCOc1ccc(CC2SC(=O)NC2=O)cc1)c1ccccn1 (configuration not stated) [ROSIGLITAZONE] | 45%

Test system: Rattus norvegicus
Experiment: Antidiabetic activity in Zucker fa/fa rat assessed as decrease in triglyceride levels at 0.03 mg/kg, po once daily for 7 days
Assay type: functional, organism-based
Design: dose 0.03 mg/kg
Conditions: not given

Row | Structure (SMILES) | Activity
5 | CN(CCOc1ccc(CC2SC(=O)NC2=O)cc1)c1ccccn1 (configuration not stated) [ROSIGLITAZONE] | Active

Test system: Rattus norvegicus
Experiment: Antidiabetic activity in Zucker fa/fa rat assessed as decrease in triglyceride levels at 0.3 mg/kg, po once daily for 7 days
Assay type: functional, organism-based
Design: dose 0.3 mg/kg
Conditions: not given

Row | Structure (SMILES) | Activity
6 | CN(CCOc1ccc(CC2SC(=O)NC2=O)cc1)c1ccccn1 (configuration not stated) [ROSIGLITAZONE] | Active

Test system: Rattus norvegicus
Experiment: Antidiabetic activity in Zucker fa/fa rat assessed as decrease in triglyceride levels at 3 mg/kg, po once daily for 7 days
Assay type: functional, organism-based
Design: dose 3 mg/kg
Conditions: not given

Row | Structure (SMILES) | Activity
7 | CN(CCOc1ccc(CC2SC(=O)NC2=O)cc1)c1ccccn1 (configuration not stated) [ROSIGLITAZONE] | Active

Test system: Rattus norvegicus
Experiment: Antidiabetic activity in Zucker fa/fa rat assessed as decrease in triglyceride levels at 15 mg/kg, po once daily for 7 days
Assay type: functional, organism-based
Design: dose 15 mg/kg
Conditions: not given

Row | Structure (SMILES) | Activity
8 | CN(CCOc1ccc(CC2SC(=O)NC2=O)cc1)c1ccccn1 (configuration not stated) [ROSIGLITAZONE] | Active

Test system: Rattus norvegicus
Experiment: Antidiabetic activity in Zucker fa/fa rat assessed as decrease in triglyceride levels at 1 mg/kg, po once daily for 7 days
Assay type: functional, organism-based
Design: dose 1 mg/kg
Conditions: not given

Row | Structure (SMILES) | Activity
9 | CN(CCOc1ccc(CC2SC(=O)NC2=O)cc1)c1ccccn1 (configuration not stated) [ROSIGLITAZONE] | Active

Test system: Rattus norvegicus
Experiment: Antidiabetic activity in Zucker fa/fa rat assessed as decrease in triglyceride levels at 10 mg/kg, po once daily for 7 days
Assay type: functional, organism-based
Design: dose 10 mg/kg
Conditions: not given

Row | Structure (SMILES) | Activity
10 | CN(CCOc1ccc(CC2SC(=O)NC2=O)cc1)c1ccccn1 (configuration not stated) [ROSIGLITAZONE] | Active

Test system: Rattus norvegicus
Experiment: Antidiabetic activity in Zucker fa/fa rat assessed as decrease in triglyceride levels at 100 mg/kg, po once daily for 7 days
Assay type: functional, organism-based
Design: dose 100 mg/kg
Conditions: not given

Row | Structure (SMILES) | Activity
11 | CN(CCOc1ccc(CC2SC(=O)NC2=O)cc1)c1ccccn1 (configuration not stated) [ROSIGLITAZONE] | Active

Test system: Rattus norvegicus
Experiment: Antidiabetic activity in po dosed Zucker fa/fa rat assessed as insulin lowering activity treated once daily for 7 days
Assay type: functional
Conditions: not given

Row | Structure (SMILES) | ED50
12 | CN(CCOc1ccc(CC2SC(=O)NC2=O)cc1)c1ccccn1 (configuration not stated) [ROSIGLITAZONE] | 25 µM·h

Test system: Syrian golden hamster
Experiment: Antidiabetic activity in Syrian golden hamster assessed as reduction in cholesterol level at 100 mg/kg, po once daily for 9 days relative to control
Assay type: functional, Mesocricetus auratus
Design: scale not given: the % may be the effect or the level left
Conditions: not given

Row | Structure (SMILES) | Activity
13 | CC(C)OC(=O)C(C)(C)Oc1ccc(C(=O)c2ccc(Cl)cc2)cc1 [FENOFIBRATE] | 22.7%

Test system: Syrian golden hamster
Experiment: Antidiabetic activity in Syrian golden hamster assessed as reduction in triglyceride level at 100 mg/kg, po once daily for 9 days relative to control
Assay type: functional, Mesocricetus auratus
Design: scale not given: the % may be the effect or the level left
Conditions: not given

Row | Structure (SMILES) | Activity
14 | CC(C)OC(=O)C(C)(C)Oc1ccc(C(=O)c2ccc(Cl)cc2)cc1 [FENOFIBRATE] | 33.7%

Test system: not listed separately
Experiment: AUC in Syrian golden hamster at 100 mg/kg, po once daily for 9 days
Assay type: ADME, organism-based, Mesocricetus auratus
Design: dose 100 mg/kg, route oral
Conditions: plasma

Row | AUC at 216 h | Structure (SMILES)
15 | 1800 µM·h | CC(C)OC(=O)C(C)(C)Oc1ccc(C(=O)c2ccc(Cl)cc2)cc1 [FENOFIBRATE]

Test system: Canis familiaris
Experiment: Antidiabetic activity in Beagle dog assessed as reduction in total cholesterol level at 50 mg/kg, po once daily for 14 days relative to control
Assay type: functional, Canis lupus familiaris
Design: scale not given: the % may be the effect or the level left
Conditions: not given

Row | Structure (SMILES) | Activity
16 | CC(C)OC(=O)C(C)(C)Oc1ccc(C(=O)c2ccc(Cl)cc2)cc1 [FENOFIBRATE] | 17%

Test system: Canis familiaris
Experiment: Antidiabetic activity in Beagle dog assessed as reduction in total cholesterol level at 4 mg/kg, po once daily for 14 days relative to control
Assay type: functional, Canis lupus familiaris
Design: scale not given: the % may be the effect or the level left
Conditions: not given

Row | Structure (SMILES) | Activity
17 | CCC(C)(C)C(=O)O[C@H]1C[C@@H](C)C=C2C=C[C@H](C)[C@H](CC[C@@H]3C[C@@H](O)CC(=O)O3)[C@H]21 [SIMVASTATIN] | 18.4%

Test system: not listed separately
Experiment: AUC in Beagle dog at 50 mg/kg, po once daily for 14 days
Assay type: ADME, organism-based, Canis lupus familiaris
Design: dose 50 mg/kg, route oral
Conditions: plasma

Row | AUC at 336 h | Structure (SMILES)
18 | 117 µM·h | CC(C)OC(=O)C(C)(C)Oc1ccc(C(=O)c2ccc(Cl)cc2)cc1 [FENOFIBRATE]

Test system: not listed separately
Experiment: Cmax in Beagle dog at 50 mg/kg, po once daily for 14 days
Assay type: ADME, organism-based, Canis lupus familiaris
Design: dose 50 mg/kg, route oral
Conditions: in vivo

Row | Cmax | Structure (SMILES)
19 | 15 µM | CC(C)OC(=O)C(C)(C)Oc1ccc(C(=O)c2ccc(Cl)cc2)cc1 [FENOFIBRATE]

Test system: not listed separately
Experiment: AUC in Sprague-Dawley rat at 150 mg/kg, po once daily for 14 days
Assay type: ADME, organism-based
Design: dose 150 mg/kg, route oral
Conditions: plasma

Row | AUC at 336 h | Structure (SMILES)
20 | 600 µM·h | CN(CCOc1ccc(CC2SC(=O)NC2=O)cc1)c1ccccn1 (configuration not stated) [ROSIGLITAZONE]

Test system: not listed separately
Experiment: AUC in Sprague-Dawley rat at 300 mg/kg, po once daily for 14 days
Assay type: ADME, organism-based
Design: dose 300 mg/kg, route oral
Conditions: plasma

Row | AUC at 336 h | Structure (SMILES)
21 | 5600 µM·h | CC(C)OC(=O)C(C)(C)Oc1ccc(C(=O)c2ccc(Cl)cc2)cc1 [FENOFIBRATE]

Test system: not listed separately
Experiment: AUC in rat at 2 mg/kg, po
Assay type: ADME, organism-based, Plasma
Design: dose 2 mg/kg, route oral
Conditions: plasma

Row | AUC | Structure (SMILES)
22 | 16.4 µM·h | CN(CCOc1ccc(CC2SC(=O)NC2=O)cc1)c1ccccn1 (configuration not stated) [ROSIGLITAZONE]

Target: T1, Peroxisome proliferator-activated receptor alpha (Mus musculus, UniProt P23204)
T1 sequence (P23204 whole entry): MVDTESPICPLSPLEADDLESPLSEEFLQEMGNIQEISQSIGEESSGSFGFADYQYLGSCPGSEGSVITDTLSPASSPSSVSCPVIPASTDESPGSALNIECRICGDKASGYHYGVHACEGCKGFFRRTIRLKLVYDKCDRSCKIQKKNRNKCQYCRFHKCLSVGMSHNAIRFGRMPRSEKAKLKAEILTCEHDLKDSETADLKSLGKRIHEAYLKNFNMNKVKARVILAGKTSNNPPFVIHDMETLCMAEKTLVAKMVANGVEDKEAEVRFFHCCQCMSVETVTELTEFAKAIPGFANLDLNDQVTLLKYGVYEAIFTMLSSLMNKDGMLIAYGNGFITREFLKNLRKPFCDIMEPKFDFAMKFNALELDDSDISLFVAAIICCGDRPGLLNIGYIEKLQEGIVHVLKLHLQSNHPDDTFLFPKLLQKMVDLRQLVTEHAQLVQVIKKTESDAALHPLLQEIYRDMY
Experiment: Agonist activity at mouse PPARalpha receptor expressed in african green monkey COS1 cells co-transfected with fused yeast Gal4-DBD by transactivation assay
Assay type: functional, cell-based, COS-1
Conditions: not given

Row | EC50 | Structure (SMILES)
23 | > 3 µM | CN(CCOc1ccc(CC2SC(=O)NC2=O)cc1)c1ccccn1 (configuration not stated) [ROSIGLITAZONE]

Test system: Mus musculus
Experiment: Antidiabetic activity in C57BLKS/J-m+/+Leprdb db/db mouse assessed as reduction in plasma glucose levels at 10 mg/kg, po once daily for 11 days relative to control
Assay type: functional
Design: scale not given: the % may be the effect or the level left
Conditions: not given

Row | Structure (SMILES) | Activity
24 | CCc1ccc(CCOc2ccc(CC3SC(=O)NC3=O)cc2)nc1 (configuration not stated) [PIOGLITAZONE] | 53%
25 | CN(CCOc1ccc(CC2SC(=O)NC2=O)cc1)c1ccccn1 (configuration not stated) [ROSIGLITAZONE] | 76%

Test system: Mus musculus
Experiment: Antidiabetic activity in C57BLKS/J-m+/+Leprdb db/db mouse assessed as reduction in plasma triglyceride levels at 10 mg/kg, po once daily for 11 days relative to control
Assay type: functional
Design: scale not given: the % may be the effect or the level left
Conditions: not given

Row | Structure (SMILES) | Activity
26 | CCc1ccc(CCOc2ccc(CC3SC(=O)NC3=O)cc2)nc1 (configuration not stated) [PIOGLITAZONE] | 65%
27 | CN(CCOc1ccc(CC2SC(=O)NC2=O)cc1)c1ccccn1 (configuration not stated) [ROSIGLITAZONE] | 71%
